What was measured:
PaCa-2 cells = assay: Extracellular acidification rate (ECAR), SeaHorse XF analyzer; type: cell-based; details: normoxia, high glucose
Description: (§1) (SeaHorse Biosciences Inc, North Billerica, Mass.).
In contrast to normal cells, cancer cells are phenotypically primed to use high glucose for ATP generation (enhanced glycolysis) resulting in higher ECAR (Table 129, ECAR for untreated normoxia 17 mM) at 21 mpH/min. […] The associated decrease in OCR in these cells was likely associated with increased efficiency of the mitochondrial OXPHOS.

HDFa cells = assay: as above; type: cell-based, human
From the text: as §1
In this experiment, the OCR and extracellular acidification rate (ECAR) in normal cells lines were obtained in the presence and absence of CoQ10 to determine baseline values. It was observed that in its native nutrient environment, the basal OCR rates in normal cells lines are different, and are usually a function of the physiological roles of the cells in the body.
Table 127 below describes the ECAR values (mpH/min) in HDFa cells in the presence or absence of CoQ10 under normoxic and hypoxic conditions at 5.5 mM and 22 mM glucose.

[1] = LC-MS/MS quantification of Q10, Q10H2 and Q9 in mitochondrial enriched samples; type: cell-based
Description: Ten μl of each sample was injected.

SKBr3 = assay: Nexin assay for apoptosis (flow cytometry); type: cell-based, human; details: 50 μM or 100 μM Q10, 24 hours
From the text: The 7AAD dye will enter into cells with permeabilized cell membranes; primarily those cells that are in late apoptosis. Annexin-V-PE is a dye that binds to Phosphotidyl serine, which is exposed on the outer surface of the plasma membrane in early apoptotic cells. The Nexin reagent thus can be used to differentiate between different populations of apoptotic cells in a flow cytometer.

[2] = test system: MCF-7 breast cancer cells; assay: Oxygen consumption rate (OCR), SeaHorse XF analyzer; type: cell-based; details: absence and presence of stressors
From the text: as §1
(§2) In contrast, cancer cells (e.g., MCF-7, PaCa-2) are inherently primed to culture at higher levels of glucose compared to normal cells due to their glycolytic phenotype for maintenance in culture.

[3] = test system: PaCa-2 pancreatic cancer cells; assay: as above; type: cell-based; details: absence and presence of stressors
From the text: as §1, §2

Hif1 alpha = assay: Western blot, Hif1 alpha levels; type: cell-based, human; details: whole cell lysates of normal cells
Description: The Actin blots were stripped by incubating for 30 minutes with methanol, followed by two 10 minute washes with TBS-T, then 30 minutes of incubation with Stripping buffer at 50 deg C., and followed by two washes with 100 ml or more of TBS-T for 30′ each. The blots were scanned in laser scanner to check for complete stripping. The blots were activated with methanol for 5 seconds, washed with water for 5 minutes, and TBST for 15 minutes. The blots were blocked for 1 hour with 5% blocking reagent in TBS-T at room temperature and then washed 3 times with TBS-T (1×-15′; 2×5′ each) and probed with the primary antibody for Hif 1 alpha, Caspase 3 or PDHB in 5% BSA (at 1:200 by incubation overnight at 4 deg C. with gentle shaking. The primary antibody for Hif 1 alpha (Abcam ab2185; antirabbit) was at 1:500 dilution in 5% BSA. The primary antibody for Caspase 3 (Santacruz sc7272; antirabbit) was at 1:200 dilution in 5% BSA. The primary antibody for Pyruvate Dehydrogenase beta (PDHB) (Novus Biologicals H00005162-M03; antimouse) was at 1:500 dilution in 5% BSA. After incubation with primary antibodies, the membranes were washed 3 times with TBS-T (1×-15′; 2×5′ each) and probed with the secondary antibody (PDHB antimouse; Hif 1a and Caspase 3 antirabbit; 1:10,000 dilution) for 1 h at room temperature. […]

Structure (SMILES): COC1=C(OC)C(=O)C(C/C=C(\C)CC/C=C(\C)CC/C=C(\C)CC/C=C(\C)CC/C=C(\C)CC/C=C(\C)CC/C=C(\C)CC/C=C(\C)CC/C=C(\C)CCC=C(C)C)=C(C)C1=O [Q10, Coenzyme Q10]
- ECAR rates (PaCa-2 cells): significant decrease in ECAR rates
- ECAR (HDFa cells; high glucose hypoxic conditions): lowering of elevated ECAR
- ECAR values (HDFa cells; normoxic and hypoxic, 5.5 mM and 22 mM glucose): minimal influence on ECAR values
- increase in Q10 levels in mitochondria ([1]; 100 μM Q10, 19 hours): ~3 fold
- increase in Q10 levels in mitochondria ([1]; 100 μM Q10, 48 hour time point): ~6 fold
- form of Q10 in mitochondria ([1]; exogenous Q10 added to the media): maintained in the supplied oxidized form
- early and late apoptosis (SKBr3): did not show any significant increases of early and late apoptosis
- OCR values [2]: consistent reduction in OCR values
- OCR values [3]: consistent reduction in OCR values
- lower band of Hif1a (Hif1 alpha): showed a decrease as well

— patent US10351915B2 (Berg LLC, priority 2009, dated 2019)
